The values that follow come from patent US11352340B2, “Pyridine and pyridimine compounds as PI3K-gamma inhibitors” (Incyte Corporation, priority 2016, dated 2022).

pIC50: −log10 of the molar value. Counter-ions that a name gives are not always drawn. Some results are limits rather than exact numbers.

For assay [1], the system named is Phosphorylated Ribosomal Protein S6 (RPS6) in THP-1 cells. The experiment in a line: THP-1 RPS6 ELISA Assay. The settings on record: Homo sapiens, MCP-1 stimulated, phospho-RPS6 ELISA, read-out: THP p-RPS6 ELISA IC50. It is filed as cell-based, Human. The gist of the method:
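Serum-starved THP-1 cells (2×10^5/well, RPMI) preincubated with compound 2 h at 37° C, then stimulated with 10 nM MCP-1 for 15 min. Lysates assayed by phospho-RPS6 ELISA, absorbance 450 nm (540 nm correction); IC50 from percent inhibition versus log concentration.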
On the technique in general: ELISA stands for enzyme-linked immunosorbent assay.

The target in assay [2] is PI3Kδ (p110δ/p85α) Recombinant Human Protein (Homo sapiens (Human), UniProt O00329). Description: PI3Kδ Scintillation Proximity Assay. The following applies: read-out: PI3K-delta SPA IC50. In kind it is biochemical. The gist of the method: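 Recombinant human p110δ/p85α (3.4 nM) phosphorylates 20 μM di-octanoyl PIP2 using 2 μM ATP spiked with [γ-33P]ATP, 120 min, room temperature, pH 6.7, 2% DMSO. Product measured by scintillation proximity; IC50 from dose-response fit.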
Chain of PI3Kδ (p110δ/p85α) Recombinant Human Protein (O00329 whole entry): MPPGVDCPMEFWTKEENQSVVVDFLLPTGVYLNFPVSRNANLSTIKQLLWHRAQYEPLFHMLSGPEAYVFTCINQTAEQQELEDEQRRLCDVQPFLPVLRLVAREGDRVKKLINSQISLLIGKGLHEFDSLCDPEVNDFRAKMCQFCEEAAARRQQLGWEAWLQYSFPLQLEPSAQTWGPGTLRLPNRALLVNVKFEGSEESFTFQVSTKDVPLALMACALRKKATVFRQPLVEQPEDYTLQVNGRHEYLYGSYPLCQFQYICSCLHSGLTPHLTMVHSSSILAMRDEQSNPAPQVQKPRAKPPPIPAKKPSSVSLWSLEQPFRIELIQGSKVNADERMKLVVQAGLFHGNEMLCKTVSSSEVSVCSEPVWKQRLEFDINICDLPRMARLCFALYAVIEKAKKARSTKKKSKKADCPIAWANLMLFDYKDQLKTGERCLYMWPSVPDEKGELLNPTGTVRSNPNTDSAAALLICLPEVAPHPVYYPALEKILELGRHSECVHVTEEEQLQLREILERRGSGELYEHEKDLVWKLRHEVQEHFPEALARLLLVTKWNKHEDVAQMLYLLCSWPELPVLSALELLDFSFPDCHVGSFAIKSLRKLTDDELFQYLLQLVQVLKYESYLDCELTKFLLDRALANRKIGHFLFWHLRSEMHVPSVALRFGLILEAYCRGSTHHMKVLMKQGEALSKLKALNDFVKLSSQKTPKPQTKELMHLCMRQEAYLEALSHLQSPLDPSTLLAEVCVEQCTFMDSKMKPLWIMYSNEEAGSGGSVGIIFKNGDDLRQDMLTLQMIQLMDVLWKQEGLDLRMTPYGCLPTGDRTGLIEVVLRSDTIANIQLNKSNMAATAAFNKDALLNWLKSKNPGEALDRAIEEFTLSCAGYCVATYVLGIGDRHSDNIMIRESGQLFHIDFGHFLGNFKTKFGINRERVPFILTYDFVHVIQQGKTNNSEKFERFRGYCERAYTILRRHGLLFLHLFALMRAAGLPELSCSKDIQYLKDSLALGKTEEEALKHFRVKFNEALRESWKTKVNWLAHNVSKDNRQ
Chain of PI3Kδ (p110δ/p85α) Recombinant Human Protein (P27986 whole entry partner): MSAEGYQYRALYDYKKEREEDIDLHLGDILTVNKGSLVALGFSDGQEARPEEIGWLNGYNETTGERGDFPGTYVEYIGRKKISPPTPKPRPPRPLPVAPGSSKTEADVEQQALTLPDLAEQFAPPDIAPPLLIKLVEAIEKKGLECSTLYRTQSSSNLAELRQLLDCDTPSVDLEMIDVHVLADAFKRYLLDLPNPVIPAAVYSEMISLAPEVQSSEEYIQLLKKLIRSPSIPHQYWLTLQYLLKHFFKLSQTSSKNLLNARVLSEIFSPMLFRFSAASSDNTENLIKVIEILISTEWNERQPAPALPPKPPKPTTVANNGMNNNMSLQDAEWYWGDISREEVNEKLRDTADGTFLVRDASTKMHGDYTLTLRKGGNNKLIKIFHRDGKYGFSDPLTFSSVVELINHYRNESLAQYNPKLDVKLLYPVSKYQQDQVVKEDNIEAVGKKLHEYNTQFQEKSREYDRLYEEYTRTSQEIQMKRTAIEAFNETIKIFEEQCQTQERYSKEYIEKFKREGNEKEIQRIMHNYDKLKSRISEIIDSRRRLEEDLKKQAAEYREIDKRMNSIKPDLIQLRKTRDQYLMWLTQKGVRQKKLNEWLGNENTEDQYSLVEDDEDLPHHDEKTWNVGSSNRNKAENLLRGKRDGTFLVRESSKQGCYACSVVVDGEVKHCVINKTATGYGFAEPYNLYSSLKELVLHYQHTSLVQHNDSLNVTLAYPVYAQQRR

The target in assay [3] is PI3Kγ (p110γ) Recombinant Human Protein (Homo sapiens (Human), UniProt P48736). The experiment in a line: PI3K-γ Scintillation Proximity Assay. It is filed as biochemical. The settings on record: read-out: PI3K-gamma SPA IC50. The essentials: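 Recombinant human p110γ (13 nM) with 20 μM PIP2 and 2 μM ATP plus 0.5 μCi [γ-33P]ATP in 20 mM MOPS pH 6.7, 10 mM MgCl2, 5 mM DTT, 0.03% CHAPS, 2% DMSO, 120 min at room temperature. Product captured on WGA SPA beads and counted; IC50 fitted from % of solvent control versus log concentration.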
Chain of PI3Kγ (p110γ) Recombinant Human Protein (P48736 whole entry): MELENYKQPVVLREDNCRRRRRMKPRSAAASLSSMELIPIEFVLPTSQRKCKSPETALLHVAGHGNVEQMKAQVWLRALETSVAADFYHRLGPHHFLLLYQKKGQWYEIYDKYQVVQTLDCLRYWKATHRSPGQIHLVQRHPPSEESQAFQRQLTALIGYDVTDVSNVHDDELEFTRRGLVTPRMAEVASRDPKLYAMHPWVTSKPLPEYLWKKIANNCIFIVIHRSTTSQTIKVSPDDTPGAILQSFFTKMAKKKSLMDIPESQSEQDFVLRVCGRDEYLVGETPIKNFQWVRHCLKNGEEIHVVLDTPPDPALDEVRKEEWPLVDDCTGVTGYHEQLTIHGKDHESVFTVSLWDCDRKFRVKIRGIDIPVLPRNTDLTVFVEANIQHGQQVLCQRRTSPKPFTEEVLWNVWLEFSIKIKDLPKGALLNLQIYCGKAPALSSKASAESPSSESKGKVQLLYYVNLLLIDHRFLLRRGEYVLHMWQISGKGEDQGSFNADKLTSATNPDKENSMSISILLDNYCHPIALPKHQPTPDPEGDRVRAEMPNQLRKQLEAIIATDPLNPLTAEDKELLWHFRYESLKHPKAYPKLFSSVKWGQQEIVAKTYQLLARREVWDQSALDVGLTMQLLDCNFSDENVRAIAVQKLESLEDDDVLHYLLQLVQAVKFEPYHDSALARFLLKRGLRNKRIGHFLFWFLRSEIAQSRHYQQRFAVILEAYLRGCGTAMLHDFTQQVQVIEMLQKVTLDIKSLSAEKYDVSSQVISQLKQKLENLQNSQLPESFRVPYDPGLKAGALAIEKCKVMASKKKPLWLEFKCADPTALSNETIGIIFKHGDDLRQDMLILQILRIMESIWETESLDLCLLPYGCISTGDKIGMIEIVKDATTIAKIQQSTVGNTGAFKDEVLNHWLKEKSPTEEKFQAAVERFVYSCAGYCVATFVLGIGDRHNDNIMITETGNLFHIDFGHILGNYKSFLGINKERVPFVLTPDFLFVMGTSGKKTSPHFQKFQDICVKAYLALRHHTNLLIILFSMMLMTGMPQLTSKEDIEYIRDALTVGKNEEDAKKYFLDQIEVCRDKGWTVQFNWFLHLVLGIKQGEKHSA
On the technique in general: In a scintillation proximity assay essentially only radioactivity close to the scintillant gives light.

For the compound `CS(=O)(=O)c1cncc(-c2ccnc(-c3ncc(C4CCCCC4)[nH]3)c2)c1` [Example 106, 2′-(5-Cyclohexyl-1H-imidazol-2-yl)-5-(methylsulfonyl)-3,4′-bipyridine Trifluoroacetate Salt], the pIC50 in assay [1] is ≥ 6.52; in assay [2], ≥ 7.30; in assay [3], ≥ 7.30.

With `Cc1cnc(-c2cc(-c3cncc(S(C)(=O)=O)c3)ccn2)[nH]1` [Example 107, 2′-(5-Methyl-1H-imidazol-2-yl)-5-(methylsulfonyl)-3,4′-bipyridine trifluoroacetate salt], the pIC50 in assay [1] was ≥ 6.52; in assay [2], ≥ 7.00; in assay [3] it was ≥ 7.00.

`Cc1nc(-c2cc(-c3cncc(S(C)(=O)=O)c3)ccn2)[nH]c1C` [Example 108, 2′-(4,5-Dimethyl-1H-imidazol-2-yl)-5-(methylsulfonyl)-3,4′-bipyridine trifluoroacetate salt]: the pIC50 in assay [1] was ≥ 6.52; in assay [2], ≥ 7.30; in assay [3], ≥ 7.30.

Consider `CS(=O)(=O)c1cncc(-c2ccnc(-c3ncc(C(F)(F)F)[nH]3)c2)c1` [Example 109, 5-(Methylsulfonyl)-2′-(5-(trifluoromethyl)-1H-imidazol-2-yl)-3,4′-bipyridine trifluoroacetate salt], for which the results for the pIC50 in assay [1], in assay [2] and in assay [3] were 6.00 to 6.52, ≥ 7.30 and ≥ 7.30, respectively.

`CCc1cnc(-c2cc(-c3cncc(S(C)(=O)=O)c3)ccn2)[nH]1` [Example 110, 2′-(5-Ethyl-1H-imidazol-2-yl)-5-(methylsulfonyl)-3,4′-bipyridine trifluoroacetate salt]: the pIC50 in assay [1] was 6.00 to 6.52; in assay [2] it was ≥ 7.30; in assay [3], ≥ 7.30.

On to `CC(C)c1cnc(-c2cc(-c3cncc(S(C)(=O)=O)c3)ccn2)[nH]1` [Example 111, 2′-(5-Isopropyl-1H-imidazol-2-yl)-5-(methylsulfonyl)-3,4′-bipyridine trifluoroacetate salt], for which the pIC50 in assay [1] is 6.00 to 6.52; in assay [2], ≥ 7.30; in assay [3] it was ≥ 7.30.

As to `CS(=O)(=O)c1cncc(-c2ccnc(-c3ncc(C4CC4)[nH]3)c2)c1` [Example 112, 2′-(5-Cyclopropyl-1H-imidazol-2-yl)-5-(methylsulfonyl)-3,4′-bipyridine trifluoroacetate salt], the pIC50 was 6.00 to 6.52 in assay [1], ≥ 7.30 in assay [2] and ≥ 7.30 in assay [3].

With `CS(=O)(=O)c1cncc(-c2ccnc(-c3ncc(C4CCC4)[nH]3)c2)c1` [Example 113, 2′-(5-Cyclobutyl-1H-imidazol-2-yl)-5-(methylsulfonyl)-3,4′-bipyridine trifluoroacetate salt], the values for the pIC50 in assay [1], in assay [2] and in assay [3] were ≥ 6.52, ≥ 7.30 and ≥ 7.30, respectively.

For `CS(=O)(=O)c1cncc(-c2ccnc(-c3ncc(C4CCCC4)[nH]3)c2)c1` [Example 114, 2′-(5-Cyclopentyl-1H-imidazol-2-yl)-5-(methylsulfonyl)-3,4′-bipyridine trifluoroacetate salt], the values for the pIC50 in assay [1], in assay [2] and in assay [3] were ≥ 6.52, ≥ 7.30 and ≥ 7.30, respectively.

Regarding `CS(=O)(=O)c1cncc(-c2ccnc(-c3ncc(Cc4ccccc4)[nH]3)c2)c1` [Example 115, 2′-(5-Benzyl-1H-imidazol-2-yl)-5-(methylsulfonyl)-3,4′-bipyridine trifluoroacetate salt], the figures for the pIC50 in assay [1], in assay [2] and in assay [3] were ≥ 6.52, ≥ 7.30 and ≥ 7.30, respectively.

For the compound `Cc1nc(-c2cc(-c3cncc(S(C)(=O)=O)c3)ccn2)[nH]c1C1CC1` [Example 116, 2′-(5-Cyclopropyl-4-methyl-1H-imidazol-2-yl)-5-(methylsulfonyl)-3,4′-bipyridine trifluoroacetate salt], the pIC50 in assay [1] is ≥ 6.52; in assay [2], ≥ 7.30; in assay [3], ≥ 7.30.

In the case of `CCc1[nH]c(-c2cc(-c3cncc(S(C)(=O)=O)c3)ccn2)nc1C` [Example 117, 2′-(5-Ethyl-4-methyl-1H-imidazol-2-yl)-5-(methylsulfonyl)-3,4′-bipyridine], the pIC50 in assay [1] is ≥ 6.52; in assay [2] it was ≥ 7.30; in assay [3], ≥ 7.30.

With `CS(=O)(=O)c1cncc(-c2ccnc(-c3ncc(-c4ccccn4)[nH]3)c2)c1` [Example 118, 5-(Methylsulfonyl)-2′-(5-(pyridin-2-yl)-1H-imidazol-2-yl)-3,4′-bipyridine], the pIC50 in assay [1] is 6.00 to 6.52; in assay [2], ≥ 7.30; in assay [3] it was ≥ 7.30.

For the compound `Cc1[nH]c(-c2cc(-c3cncc(S(C)(=O)=O)c3)ccn2)nc1C(=O)O` [Example 119, 5-Methyl-2-(5-(methylsulfonyl)-3,4′-bipyridin-2′-yl)-1H-imidazole-4-carboxylic acid trifluoroacetate salt], the pIC50 was < 5.30 in assay [1], < 6.30 in assay [2] and ≥ 7.30 in assay [3].

Consider `CS(=O)(=O)c1cncc(-c2ccnc(-c3nc(C4CCCCC4)c(N)[nH]3)c2)c1` [Example 120, 4-Cyclohexyl-2-[5-(methylsulfonyl)-3,4′-bipyridin-2′-yl]-1H-imidazol-5-amine Trifluoroacetate Salt], for which the figures for the pIC50 in assay [1], in assay [2] and in assay [3] were < 5.30, ≥ 7.30 and ≥ 7.00, respectively.

Take `Cc1[nH]c(-c2cc(-c3cncc(S(C)(=O)=O)c3)ccn2)nc1C(F)F` [Example 121, 2′-[4-(Difluoromethyl)-5-methyl-1H-imidazol-2-yl]-5-(methylsulfonyl)-3,4′-bipyridine Trifluoroacetate Salt]: the pIC50 in assay [1] is ≥ 6.52; in assay [2] it was ≥ 7.30; in assay [3] it was ≥ 7.30.

In the case of `Cc1[nH]c(-c2cc(-c3cncc(N4CCOCC4)c3)ccn2)nc1CO` [Example 122, [5-Methyl-2-(5-morpholin-4-yl-3,4′-bipyridin-2′-yl)-1H-imidazol-4-yl]methanol], the pIC50 is 5.30 to 6.00 in assay [1], ≥ 6.30 in assay [2] and ≥ 6.30 in assay [3].

Regarding `Cc1[nH]c(-c2cc(-c3cncc(N4CCOCC4)c3)ccn2)nc1CCO` [Example 123, 2-[5-Methyl-2-(5-morpholin-4-yl-3,4′-bipyridin-2′-yl)-1H-imidazol-4-yl]ethanol], the results for the pIC50 in assay [1], in assay [2] and in assay [3] were ≥ 6.52, ≥ 7.30 and ≥ 7.30, respectively.

Consider `COC(=O)c1nc(-c2cc(-c3cncc(N4CCOCC4)c3)ccn2)[nH]c1C` [Example 125, Methyl 5-methyl-2-(5-morpholin-4-yl-3,4′-bipyridin-2′-yl)-1H-imidazole-4-carboxylate], for which the pIC50 in assay [1] was 6.00 to 6.52; in assay [2], ≥ 7.30; in assay [3], ≥ 7.00.

Turning to `Nc1cncc(-c2ccnc(-c3ncc(-c4ccccc4)[nH]3)c2)c1` [Example 127, 2′-(5-Phenyl-1H-imidazol-2-yl)-3,4′-bipyridin-5-amine Trifluoroacetate Salt], the pIC50 is 5.30 to 6.00 in assay [1], ≥ 7.30 in assay [2] and ≥ 7.30 in assay [3].

Consider `CCS(=O)(=O)Nc1cncc(-c2ccnc(-c3ncc(-c4ccccc4)[nH]3)c2)c1` [Example 130, N-[2′-(5-Phenyl-1H-imidazol-2-yl)-3,4′-bipyridin-5-yl]ethanesulfonamide Trifluoroacetate Salt], for which the values for the pIC50 in assay [1], in assay [2] and in assay [3] were 6.00 to 6.52, ≥ 7.30 and ≥ 7.30, respectively.

For the compound `COCC(=O)Nc1cncc(-c2ccnc(-c3ncc(-c4ccccc4)[nH]3)c2)c1` [Example 131, 2-Methoxy-N-[2′-(5-phenyl-1H-imidazol-2-yl)-3,4′-bipyridin-5-yl]acetamide Trifluoroacetate Salt], the pIC50 in assay [1] was < 5.30; in assay [2], ≥ 7.30; in assay [3] it was ≥ 7.30.

Regarding `O=C(Nc1cncc(-c2ccnc(-c3ncc(-c4ccccc4)[nH]3)c2)c1)C1CCCC1` [Example 138, N-(2′-(5-Phenyl-1H-imidazol-2-yl)-3,4′-bipyridin-5-yl)cyclopentanecarboxamide], the pIC50 in assay [1] is < 5.30; in assay [2], ≥ 7.00; in assay [3], ≥ 6.30.

With `c1ccc(-c2cnc(-c3cc(-c4cncc(NCC5CCOCC5)c4)ccn3)[nH]2)cc1` [Example 141, 2′-(5-Phenyl-1H-imidazol-2-yl)-N-(tetrahydro-2H-pyran-4-ylmethyl)-3,4′-bipyridin-5-amine Trifluoroacetate Salt], the pIC50 in assay [1] is < 5.30; in assay [2] it was ≥ 7.30; in assay [3], ≥ 7.30.

`c1ccc(-c2cnc(-c3cc(-c4cncc(NC5CCOCC5)c4)ccn3)[nH]2)cc1` [Example 142, 2′-(5-Phenyl-1H-imidazol-2-yl)-N-(tetrahydro-2H-pyran-4-yl)-3,4′-bipyridin-5-amine trifluoroacetate salt]: the pIC50 in assay [1] was < 5.30; in assay [2] it was ≥ 7.30; in assay [3] it was ≥ 7.30.

With `Cc1nc(-c2cc(-c3cncc(C(=O)N4CC[C@H](O)C4)c3)ccn2)[nH]c1C` [Example 146, (S)-(2′-(4,5-Dimethyl-1H-imidazol-2-yl)-3,4′-bipyridin-5-yl)(3-hydroxypyrrolidin-1-yl)methanone], the pIC50 is ≥ 6.52 in assay [1], ≥ 7.30 in assay [2] and ≥ 7.30 in assay [3].
